The values below are quoted from earlier work in patent publication US20110245352A1, “Composition For Permeabilizing The Walls Of Microorganisms Comprising The Combination Of Ethylenediaminetetraacetic Acid (EDTA) And Polyethyleneimine (PEI)” (Millipore Corporation, priority 2007, published 2011).

This data set relates to gram-positive bacteria. The conditions noted are these: EDTA taken alone; in particular gram-positive bacteria.

As to `O=C(O)CN(CCN(CC(=O)O)CC(=O)O)CC(=O)O` [EDTA, Ethylenediaminetetraacetic acid], the “Permeabilization of microorganism walls for labeling of nucleic acids” value was “does not allow satisfactory permeabilization”.
